ChEMBL document CHEMBL2311467, “Microwave-assisted synthesis of pyrimido[4,5-b][1,6]naphthyridin-4(3H)-ones with potential antitumor activity” (Eur J Med Chem, 2013)

Tests used:
[1] = tested on: COLO 205; assay: Cytotoxicity against human COLO205 after 48 hrs by SRB assay; format: functional; settings: COLO 205, 48 h
[2] = tested on: UO-31; assay: Cytotoxicity against human UO31 after 48 hrs by SRB assay; format: functional; settings: UO-31, 48 h
[3] = tested on: SK-MEL-28; assay: Cytotoxicity against human SK-MEL-28 after 48 hrs by SRB assay; format: functional; settings: SK-MEL-28, 48 h
[4] = tested on: SF-268; assay: Cytotoxicity against human SF268 after 48 hrs by SRB assay; format: functional; settings: SF-268, 48 h
[5] = tested on: MDA-MB-435; assay: Cytotoxicity against human MDA-MB-435 after 48 hrs by SRB assay; format: functional; settings: MDA-MB-435, 48 h
[6] = tested on: HCC 2998; assay: Cytotoxicity against human HCC2998 after 48 hrs by SRB assay; format: functional; settings: HCC 2998, 48 h
[7] = tested on: NCI-H226; assay: Cytotoxicity against human NCI-H226 after 48 hrs by SRB assay; format: functional; settings: NCI-H226, 48 h
[8] = tested on: M14; assay: Cytotoxicity against human M14 after 48 hrs by SRB assay; format: functional; settings: M14, 48 h
[9] = tested on: CAKI-1; assay: Cytotoxicity against human CAKI-1 after 48 hrs by SRB assay; format: functional; settings: CAKI-1, 48 h
[10] = tested on: HCT-116; assay: Cytotoxicity against human HCT116 after 48 hrs by SRB assay; format: functional; settings: HCT-116, 48 h
[11] = tested on: MDA-MB-231; assay: Cytotoxicity against human MDA-MB-231 after 48 hrs by SRB assay; format: functional; settings: MDA-MB-231, 48 h
[12] = tested on: NCI-H322M; assay: Cytotoxicity against human NCI-H322M after 48 hrs by SRB assay; format: functional
[13] = Cytotoxicity against human EKVX after 48 hrs by SRB assay; format: functional
[14] = tested on: NCI-H522; assay: Cytotoxicity against human NCI-H522 after 48 hrs by SRB assay; format: functional; settings: NCI-H522, 48 h
[15] = tested on: SR; assay: Cytotoxicity against human SR after 48 hrs by SRB assay; format: functional
[16] = tested on: A549; assay: Cytotoxicity against human A549 after 48 hrs by SRB assay; format: functional; settings: A549, 48 h
[17] = tested on: Hs-578T; assay: Cytotoxicity against human Hs578T after 48 hrs by SRB assay; format: functional
[18] = tested on: RXF 393; assay: Cytotoxicity against human RXF393 after 48 hrs by SRB assay; format: functional; settings: RXF 393, 48 h
[19] = tested on: SK-MEL-5; assay: Cytotoxicity against human SK-MEL-5 after 48 hrs by SRB assay; format: functional; settings: SK-MEL-5, 48 h
[20] = tested on: SK-OV-3; assay: Cytotoxicity against human SKOV3 after 48 hrs by SRB assay; format: functional; settings: SK-OV-3, 48 h
[21] = tested on: IGROV-1; assay: Cytotoxicity against human IGROV1 after 48 hrs by SRB assay; format: functional; settings: IGROV-1, 48 h
[22] = tested on: TK-10; assay: Cytotoxicity against human TK10 after 48 hrs by SRB assay; format: functional; settings: TK-10, 48 h
[23] = tested on: NCI-H460; assay: Cytotoxicity against human NCI-H460 after 48 hrs by SRB assay; format: functional; settings: NCI-H460, 48 h
[24] = tested on: UACC-62; assay: Cytotoxicity against human UACC62 after 48 hrs by SRB assay; format: functional; settings: UACC-62, 48 h
[25] = tested on: MDA-MB-468; assay: Cytotoxicity against human MDA-MB-468 after 48 hrs by SRB assay; format: functional; settings: MDA-MB-468, 48 h
[26] = tested on: Malme-3M; assay: Cytotoxicity against human MALME-3M after 48 hrs by SRB assay; format: functional
[27] = tested on: U-251; assay: Cytotoxicity against human U251 after 48 hrs by SRB assay; format: functional; settings: U-251, 48 h
[28] = tested on: MOLT-4; assay: Cytotoxicity against human MOLT4 after 48 hrs by SRB assay; format: functional; settings: MOLT-4, 48 h
[29] = tested on: HT-29; assay: Cytotoxicity against human HT-29 after 48 hrs by SRB assay; format: functional; settings: HT-29, 48 h
[30] = tested on: OVCAR-5; assay: Cytotoxicity against human OVCAR5 after 48 hrs by SRB assay; format: functional; settings: OVCAR-5, 48 h
[31] = tested on: 786-0; assay: Cytotoxicity against human 786-0 after 48 hrs by SRB assay; format: functional; settings: 786-0, 48 h
[32] = tested on: DU-145; assay: Cytotoxicity against human DU145 after 48 hrs by SRB assay; format: functional; settings: DU-145, 48 h
[33] = tested on: HOP-62; assay: Cytotoxicity against human HOP62 after 48 hrs by SRB assay; format: functional; settings: HOP-62, 48 h
[34] = tested on: SF-539; assay: Cytotoxicity against human SF539 after 48 hrs by SRB assay; format: functional; settings: SF-539, 48 h
[35] = tested on: OVCAR-3; assay: Cytotoxicity against human OVCAR3 after 48 hrs by SRB assay; format: functional; settings: OVCAR-3, 48 h
[36] = tested on: OVCAR-4; assay: Cytotoxicity against human OVCAR4 after 48 hrs by SRB assay; format: functional; settings: OVCAR-4, 48 h
[37] = tested on: NCI-H23; assay: Cytotoxicity against human NCI-H23 after 48 hrs by SRB assay; format: functional; settings: NCI-H23, 48 h
[38] = tested on: SW-620; assay: Cytotoxicity against human SW620 after 48 hrs by SRB assay; format: functional; settings: SW-620, 48 h
[39] = Cytotoxicity against human HL-60(TB) after 48 hrs by SRB assay; format: functional; settings: HL-60, 48 h
[40] = tested on: T47D; assay: Cytotoxicity against human T47D after 48 hrs by SRB assay; format: functional
[41] = tested on: SK-MEL-2; assay: Cytotoxicity against human SK-MEL-2 after 48 hrs by SRB assay; format: functional; settings: SK-MEL-2, 48 h
[42] = tested on: HOP-92; assay: Cytotoxicity against human HOP92 after 48 hrs by SRB assay; format: functional; settings: HOP-92, 48 h
[43] = tested on: MCF7; assay: Cytotoxicity against human MCF7 after 48 hrs by SRB assay; format: functional; settings: MCF7, 48 h
[44] = tested on: OVCAR-8; assay: Cytotoxicity against human OVCAR8 after 48 hrs by SRB assay; format: functional; settings: OVCAR-8, 48 h
[45] = tested on: HCT-15; assay: Cytotoxicity against human HCT15 after 48 hrs by SRB assay; format: functional; settings: HCT-15, 48 h
[46] = tested on: UACC-257; assay: Cytotoxicity against human UACC257 after 48 hrs by SRB assay; format: functional; settings: UACC-257, 48 h
[47] = tested on: NCI/ADR-RES; assay: Cytotoxicity against human NCI/ADR-RES after 48 hrs by SRB assay; format: functional
[48] = tested on: SN12C; assay: Cytotoxicity against human SN12C after 48 hrs by SRB assay; format: functional
[49] = tested on: ACHN; assay: Cytotoxicity against human ACHN after 48 hrs by SRB assay; format: functional
[50] = tested on: PC-3; assay: Cytotoxicity against human PC3 after 48 hrs by SRB assay; format: functional; settings: PC-3, 48 h
[51] = tested on: SNB-19; assay: Cytotoxicity against human SNB19 after 48 hrs by SRB assay; format: functional; settings: SNB-19, 48 h
[52] = tested on: SNB-75; assay: Cytotoxicity against human SNB75 after 48 hrs by SRB assay; format: functional; settings: SNB-75, 48 h
[53] = tested on: KM12; assay: Cytotoxicity against human KM12 after 48 hrs by SRB assay; format: functional; settings: KM12, 48 h
[54] = tested on: SF-295; assay: Cytotoxicity against human SF295 after 48 hrs by SRB assay; format: functional; settings: SF-295, 48 h
[55] = tested on: LOX IMVI; assay: Cytotoxicity against human LOXIMVI after 48 hrs by SRB assay; format: functional
[56] = tested on: A498; assay: Cytotoxicity against human A498 after 48 hrs by SRB assay; format: functional; settings: A498, 48 h
[57] = tested on: BT-549; assay: Cytotoxicity against human BT549 after 48 hrs by SRB assay; format: functional; settings: BT-549, 48 h
[58] = target: Mineralocorticoid receptor (Homo sapiens, UniProt P08235); assay: Antagonist activity at mineralocorticoid receptor (unknown origin)
[59] = read-out: LC50 (the source's name)

Mineralocorticoid receptor, sequence (P08235 whole entry): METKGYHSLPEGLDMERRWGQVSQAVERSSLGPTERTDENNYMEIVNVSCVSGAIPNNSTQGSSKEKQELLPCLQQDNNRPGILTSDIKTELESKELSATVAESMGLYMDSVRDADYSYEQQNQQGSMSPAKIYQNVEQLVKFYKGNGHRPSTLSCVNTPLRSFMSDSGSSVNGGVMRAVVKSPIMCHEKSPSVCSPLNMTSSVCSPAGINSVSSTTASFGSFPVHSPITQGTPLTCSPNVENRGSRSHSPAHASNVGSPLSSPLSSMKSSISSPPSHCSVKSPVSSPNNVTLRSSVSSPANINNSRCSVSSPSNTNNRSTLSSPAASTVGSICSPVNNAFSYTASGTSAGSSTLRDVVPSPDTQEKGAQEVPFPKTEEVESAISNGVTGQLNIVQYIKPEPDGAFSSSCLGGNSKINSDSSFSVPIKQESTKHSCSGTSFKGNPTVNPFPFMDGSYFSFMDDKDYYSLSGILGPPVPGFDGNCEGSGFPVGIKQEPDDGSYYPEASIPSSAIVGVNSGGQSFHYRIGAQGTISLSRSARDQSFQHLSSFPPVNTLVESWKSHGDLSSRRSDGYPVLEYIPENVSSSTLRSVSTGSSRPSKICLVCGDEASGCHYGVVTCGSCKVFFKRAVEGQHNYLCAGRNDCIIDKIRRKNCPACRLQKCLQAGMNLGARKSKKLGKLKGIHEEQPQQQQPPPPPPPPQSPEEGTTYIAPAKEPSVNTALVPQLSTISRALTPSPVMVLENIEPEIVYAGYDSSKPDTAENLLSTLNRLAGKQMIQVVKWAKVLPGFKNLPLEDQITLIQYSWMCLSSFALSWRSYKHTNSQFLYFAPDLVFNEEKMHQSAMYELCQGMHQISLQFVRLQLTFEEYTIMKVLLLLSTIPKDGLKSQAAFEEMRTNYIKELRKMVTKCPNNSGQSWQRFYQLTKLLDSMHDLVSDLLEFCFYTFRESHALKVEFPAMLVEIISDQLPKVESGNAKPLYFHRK

COc1cc(/C=C2\CN(C)CC3=C2Nc2nc(SC)[nH]c(=O)c2C3c2cc(OC)c(OC)c(OC)c2)cc(OC)c1OC (stereo not given)
GI50 [1]: 2.11 µM
CC50 [1, 59]: 12.6 µM
GI50 [2]: 1.57 µM
CC50 [2, 59]: 7.54 µM
GI50 [3]: 2.1 µM
CC50 [3, 59]: 8.79 µM
GI50 [4]: 1.66 µM
CC50 [4, 59]: 6.96 µM
GI50 [5]: 2.51 µM
CC50 [5, 59]: 39.8 µM
GI50 [6]: 1.91 µM
CC50 [6, 59]: 6.9 µM
GI50 [7]: 6.17 µM
CC50 [7, 59]: 60.6 µM
GI50 [8]: 2.98 µM
CC50 [8, 59]: 50.9 µM
GI50 [9]: 2.15 µM
CC50 [9, 59]: 11.9 µM
GI50 [10]: 1.66 µM
CC50 [10, 59]: 6.05 µM
GI50 [11]: 3.14 µM
CC50 [11, 59]: 50.3 µM
GI50 [12]: 6.6 µM
CC50 [12, 59]: 46.1 µM
GI50 [13]: 8.44 µM
CC50 [13, 59]: > 100 µM
GI50 [14]: 2.04 µM
CC50 [14, 59]: 15.5 µM
GI50 [15]: 1.48 µM
CC50 [15, 59]: > 100 µM
GI50 [16]: 3.26 µM
CC50 [16, 59]: 62.5 µM
GI50 [17]: 8.88 µM
CC50 [17, 59]: > 100 µM
GI50 [18]: 1.81 µM
CC50 [18, 59]: 6.61 µM
GI50 [19]: 2.83 µM
CC50 [19, 59]: 34.7 µM
GI50 [20]: 3.07 µM
CC50 [20, 59]: 51 µM
GI50 [21]: 3.1 µM
CC50 [21, 59]: 85.8 µM
GI50 [22]: 6.07 µM
CC50 [22, 59]: 46.9 µM
GI50 [23]: 2.3 µM
CC50 [23, 59]: > 100 µM
GI50 [24]: 2.06 µM
CC50 [24, 59]: 18.5 µM
GI50 [25]: 2.2 µM
CC50 [25, 59]: 38.8 µM
GI50 [26]: 2.82 µM
CC50 [26, 59]: 55.5 µM
GI50 [27]: 1.76 µM
CC50 [27, 59]: 9.75 µM
GI50 [28]: 2.92 µM
CC50 [28, 59]: > 100 µM
GI50 [29]: 2.35 µM
CC50 [29, 59]: 16.3 µM
GI50 [30]: 4.83 µM
CC50 [30, 59]: 48.7 µM
GI50 [31]: 4.01 µM
CC50 [31, 59]: 87.3 µM
GI50 [32]: 3.6 µM
CC50 [32, 59]: 34.8 µM
GI50 [33]: 2.46 µM
CC50 [33, 59]: 41.3 µM
GI50 [34]: 3.64 µM
CC50 [34, 59]: > 100 µM
GI50 [35]: 2.64 µM
CC50 [35, 59]: 23.4 µM
GI50 [36]: 4.99 µM
CC50 [36, 59]: 81 µM
GI50 [37]: 3.54 µM
CC50 [37, 59]: > 100 µM
GI50 [38]: 2 µM
CC50 [38, 59]: 9.69 µM
GI50 [39]: 2.26 µM
CC50 [39, 59]: > 100 µM
GI50 [40]: 3.69 µM
CC50 [40, 59]: > 100 µM
GI50 [41]: 9.92 µM
CC50 [41, 59]: > 100 µM
GI50 [42]: 3.4 µM
CC50 [42, 59]: 53.4 µM
GI50 [43]: 4.98 µM
CC50 [43, 59]: 50 µM
GI50 [44]: 2.89 µM
CC50 [44, 59]: > 100 µM
GI50 [45]: 2.07 µM
CC50 [45, 59]: 13.6 µM
GI50 [46]: 2.24 µM
CC50 [46, 59]: 29.1 µM
GI50 [47]: 3.6 µM
CC50 [47, 59]: > 100 µM
GI50 [48]: 2.98 µM
CC50 [48, 59]: 78.1 µM
GI50 [49]: 1.93 µM
CC50 [49, 59]: 6.53 µM
GI50 [50]: 3.63 µM
CC50 [50, 59]: > 100 µM
GI50 [51]: 8.65 µM
CC50 [51, 59]: 50 µM
GI50 [52]: 7.36 µM
CC50 [52, 59]: 57.8 µM
GI50 [53]: 1.7 µM
CC50 [53, 59]: 6.08 µM
GI50 [54]: 2.24 µM
CC50 [54, 59]: 26.9 µM
GI50 [55]: 1.66 µM
CC50 [55, 59]: 9.37 µM
GI50 [56]: 9.58 µM
CC50 [56, 59]: 46.7 µM
GI50 [57]: 2.98 µM
CC50 [57, 59]: 29.5 µM

CCOc1ncc(C)c2c1[C@H](c1ccc(C#N)cc1OC)C(C(N)=O)=C(C)N2 [FINERENONE]
IC50 [58]: 0.018 µM
